According to US11793880B2, “Conjugates of quaternized tubulysin compounds” (Seagen Inc., priority 2015, dated 2023):

Columns and labels:
Format in all cases: cell-based
[1] = test system: HL60/RV, MDR + AML; assay: In vitro assays - tubulysin free drugs, CellTiter-Glo growth inhibition; settings: Homo sapiens, HL-60, 96 h
Protocol: (§1) In vitro assays. Cells cultured in log-phase growth were seeded for 24 h in 96-well plates containing 150 μL RPMI 1640 supplemented with 20% FBS. Serial dilutions of antibody-drug conjugates in cell culture media were prepared at 4× working concentrations; 50 μL of each dilution was added to the 96-well plates. Following addition of ADC, cells were incubated with test articles for 4 d at 37° C. After 96 h, growth inhibition was assessed by CellTiter-Glo® (Promega, Madison, WI) and luminescence was measured on a plate reader. The IC50 value, determined in triplicate, is defined here as the concentration that results in a 50% reduction in cell growth relative to untreated controls.
(§2) In vitro assays—tubulysin free drugs. Cells were treated for 96 hours with tubulysin ether analogs (40-42) or tubulysin M (7), then assessed for viability as described in the methods.
(§3) The tubulysin ester analogs (133-137) and unsaturated ether analogs (176-179) were tested in vitro for potency relative to tubulysin M (7), following a 96 hour exposure. As shown by IC50 values (nM) of Table 2, Tubulysin esters 133-136 performed comparably to tubulysin M, with similar potencies across of the cell lines.
(§4) A series of analogues of the ethyl ether tubulysin compound TubOEt (41) were synthesized on solid phase lanterns that maintain the ethyl ether substitution, while either varying the residue at the Ile position (203-215) or the Mep position (216-221). Following cleavage from the solid phase, the analogues were obtained in >85% purity and tested without further purification. The compounds were tested in vitro for potency relative to a sample of TubOEt synthesized in parallel on a lantern (41-lantern), following a 96 hour exposure, with IC5O values expressed in nM (Table 3). While in many cases an attenuation in activity was observed relative to 41-lantern, some well-tolerated substitutions were found. […] While this stereochemical preference is not observed when Ile is replaced with O-methyl threonine (207) or O-methyl allothreonine (206), bulkier substituents led to a greater differentiation. […] Replacement of the Mep residue was generally less-well tolerated.

[2] = test system: L540cy, HL; assay: as above; settings: L540cy, 96 h
Protocol: as §1, §2, §3, §4

[3] = test system: HL60, AML; assay: as above; settings: Homo sapiens, HL-60, 96 h
Protocol: as §1, §2, §3, §4

[4] = test system: L428, MDR + HL; assay: as above; settings: Homo sapiens, L-428, 96 h, free drug
Protocol: as §1, §2, §3

[5] = test system: Karpas299, ALCL; assay: as above; settings: Homo sapiens, KARPAS-299, 96 h, free drug
Protocol: as §1, §2, §3

[6] = test system: HepG2, HCC; assay: In vitro assays - TubOEt analogues, CellTiter-Glo growth inhibition; settings: Homo sapiens, Table 3, lantern-made analogues >85% purity, 96 hour exposure
Protocol: as §1, §4

[7] = test system: Ramos, NHL; assay: as above; settings: Homo sapiens, Table 3, lantern-made analogues >85% purity, 96 hour exposure
Protocol: as §1, §4

[8] = test system: U266 MM; assay: as above; settings: Homo sapiens, U-266; Table 3; lantern-made analogues >85% purity, 96 hour exposure
Protocol: as §1, §4

[9] = Table 1 (examples), free drug, 96 hours
[10] = Table 2, free drug, 96 hour exposure
[11] = Table 3, lantern-made analogues >85% purity, 96 hour exposure

Compound | IC50 [1, 9] [nM] | IC50 [1, 10] [nM] | IC50 ([2]; Table 1 (examples), free drug) [nM] | IC50 [2, 10] [nM] | IC50 [3, 9] [nM] | IC50 [3, 10] [nM] | IC50 ([4]; Table 1 (examples), 96 hours) [nM] | IC50 ([4]; Table 2, 96 hour exposure) [nM] | IC50 ([5]; Table 1 (examples), 96 hours) [nM] | IC50 ([5]; Table 2, 96 hour exposure) [nM] | IC50 [1, 11] [nM] | IC50 [2, 11] [nM] | IC50 [3, 11] [nM] | IC50 [6] [nM] | IC50 [7] [nM] | IC50 [8] [nM]
CC[C@H](C)[C@H](NC(=O)[C@H]1CCCCN1C)C(=O)N(C)[C@H](C[C@@H](OC(C)=O)c1nc(C(=O)N[C@@H](Cc2ccccc2)C[C@H](C)C(=O)O)cs1)C(C)C [Compound 7, tubulysin M, reference compound] | 2.2 | 1 | 0.14 | 0.08 | 0.3 | 0.15 | 0.11 | 0.04 | 0.17 | 0.04 |  |  |  |  |  | 
CC[C@H](C)[C@H](NC(=O)[C@H]1CCCCN1C)C(=O)N(C)[C@H](C[C@@H](OC)c1nc(C(=O)N[C@@H](Cc2ccccc2)C[C@H](C)C(=O)O)cs1)C(C)C [Compound 40, (2S,4R)-4-(2-((1R,3R)-3-((2S,3S)—N,3-dimethyl-2-((R)-1-methylpiperidine-2-carboxamido)pentanamido)-1-methoxy-4-methylpentyl)thiazole-4-carboxamido)-2-methyl-5-phenylpentanoic acid] | 29 |  | 0.12 |  | 0.13 |  | 0.5 |  | 0.19 |  |  |  |  |  |  | 
CCO[C@H](C[C@H](C(C)C)N(C)C(=O)[C@@H](NC(=O)[C@H]1CCCCN1C)C(CC)CC)c1nc(C(=O)N[C@@H](Cc2ccccc2)C[C@H](C)C(=O)O)cs1 [Compound 203, (2S,4R)-4-(2-((1R,3R)-1-ethoxy-3-((S)-3-ethyl-N-methyl-2-((R)-1-methylpiperidine-2-carboxamido)pentanamido)-4-methylpentyl)thiazole-4-carboxamido)-2-methyl-5-phenylpentanoic acid] |  |  |  |  |  |  |  |  |  |  | 604 | 1 | 8 | 8 | 0.4 | 0.5
CCO[C@H](C[C@H](C(C)C)N(C)C(=O)[C@@H](NC(=O)[C@H]1CCCCN1C)[C@H](C)OC)c1nc(C(=O)N[C@@H](Cc2ccccc2)C[C@H](C)C(=O)O)cs1 [Compound 206, (2S,4R)-4-(2-((1R,3R)-1-ethoxy-3-((2S,3S)-3-methoxy-N-methyl-2-((R)-1-methylpiperidine-2-carboxamido)butanamido)-4-methylpentyl)thiazole-4-carboxamido)-2-methyl-5-phenylpentanoic acid] |  |  |  |  |  |  |  |  |  |  | > 1000 | 6 | 16 | 41 | 2 | 3
CCO[C@H](C[C@H](C(C)C)N(C)C(=O)[C@@H](NC(=O)[C@H]1CCCCN1C)[C@@H](C)OC)c1nc(C(=O)N[C@@H](Cc2ccccc2)C[C@H](C)C(=O)O)cs1 [Compound 207, (2S,4R)-4-(2-((1R,3R)-1-ethoxy-3-((2S,3R)-3-methoxy-N-methyl-2-((R)-1-methylpiperidine-2-carboxamido)butanamido)-4-methylpentyl)thiazole-4-carboxamido)-2-methyl-5-phenylpentanoic acid] |  |  |  |  |  |  |  |  |  |  | > 1000 | 6 | 9 | 46 | 2 | 2
CCO[C@H](C[C@H](C(C)C)N(C)C(=O)[C@@H](NC(=O)[C@H]1CCCCN1C)C1Cc2ccccc2C1)c1nc(C(=O)N[C@@H](Cc2ccccc2)C[C@H](C)C(=O)O)cs1 [Compound 208, (2S,4R)-4-(2-((1R,3R)-3-((S)-2-(2,3-dihydro-1H-inden-2-yl)-N-methyl-2-((R)-1-methylpiperidine-2-carboxamido)acetamido)-1-ethoxy-4-methylpentyl)thiazole-4-carboxamido)-2-methyl-5-phenylpentanoic acid] |  |  |  |  |  |  |  |  |  |  | > 1000 | 58 | 221 | 250 | 44 | 40
CCO[C@H](C[C@H](C(C)C)N(C)C(=O)[C@@H](NC(=O)[C@H]1CCCCN1C)[C@H](C)CC)c1nc(C(=O)N[C@@H](Cc2ccccc2)C[C@H](C)C(=O)O)cs1 [Compound 209, (2S,4R)-4-(2-((1R,3R)-3-((2S,3R)—N,3-dimethyl-2-((R)-1-methylpiperidine-2-carboxamido)pentanamido)-1-ethoxy-4-methylpentyl)thiazole-4-carboxamido)-2-methyl-5-phenylpentanoic acid] |  |  |  |  |  |  |  |  |  |  | > 1000 | 12 | 15 | 50 | 7 | 8
CCO[C@H](C[C@H](C(C)C)N(C)C(=O)C(NC(=O)[C@H]1CCCCN1C)C12CC(F)(C1)C2)c1nc(C(=O)N[C@@H](Cc2ccccc2)C[C@H](C)C(=O)O)cs1 (stereo partly drawn) [Compound 211, (2S,4R)-4-(2-((1R,3R)-1-ethoxy-3-(2-(3-fluorobicyclo[1.1.1]pentan-1-yl)-N-methyl-2-((R)-1-methylpiperidine-2-carboxamido)acetamido)-4-methylpentyl)thiazole-4-carboxamido)-2-methyl-5-phenylpentanoic acid] |  |  |  |  |  |  |  |  |  |  | 224 | 2 | 5 | 14 | 1 | 2
CCO[C@H](C[C@H](C(C)C)N(C)C(=O)[C@H](CC1CC1)NC(=O)[C@H]1CCCCN1C)c1nc(C(=O)N[C@@H](Cc2ccccc2)C[C@H](C)C(=O)O)cs1 [Compound 212, (2S,4R)-4-(2-((1R,3R)-3-((S)-3-cyclopropyl-N-methyl-2-((R)-1-methylpiperidine-2-carboxamido)propanamido)-1-ethoxy-4-methylpentyl)thiazole-4-carboxamido)-2-methyl-5-phenylpentanoic acid] |  |  |  |  |  |  |  |  |  |  | 810 | 2 | 8 | 19 | 1 | 1
CCO[C@H](C[C@H](C(C)C)N(C)C(=O)[C@H](CC1CCCCC1)NC(=O)[C@H]1CCCCN1C)c1nc(C(=O)N[C@@H](Cc2ccccc2)C[C@H](C)C(=O)O)cs1 [Compound 213, (2S,4R)-4-(2-((1R,3R)-3-((S)-3-cyclohexyl-N-methyl-2-((R)-1-methylpiperidine-2-carboxamido)propanamido)-1-ethoxy-4-methylpentyl)thiazole-4-carboxamido)-2-methyl-5-phenylpentanoic acid] |  |  |  |  |  |  |  |  |  |  | > 1000 | 20 | 42 | 70 | 10 | 9
CCO[C@H](C[C@H](C(C)C)N(C)C(=O)[C@@H](NC(=O)[C@H]1CCCCN1C)[C@H](C)OC(C)(C)C)c1nc(C(=O)N[C@@H](Cc2ccccc2)C[C@H](C)C(=O)O)cs1 [Compound 214, (2S,4R)-4-(2-((1R,3R)-3-((2S,3S)-3-(tert-butoxy)-N-methyl-2-((R)-1-methylpiperidine-2-carboxamido)butanamido)-1-ethoxy-4-methylpentyl)thiazole-4-carboxamido)-2-methyl-5-phenylpentanoic acid] |  |  |  |  |  |  |  |  |  |  | > 1000 | 30 | 190 | 91 | 20 | 22
CCO[C@H](C[C@H](C(C)C)N(C)C(=O)[C@@H](NC(=O)[C@@H](C(C)C)N(C)C)[C@@H](C)CC)c1nc(C(=O)N[C@@H](Cc2ccccc2)C[C@H](C)C(=O)O)cs1 [Compound 220, (2S,4R)-4-(2-((3R,6S,9R,11R)-6-((S)-sec-butyl)-3,9-diisopropyl-2,8-dimethyl-4,7-dioxo-12-oxa-2,5,8-triazatetradecan-11-yl)thiazole-4-carboxamido)-2-methyl-5-phenylpentanoic acid] |  |  |  |  |  |  |  |  |  |  | > 1000 | 13 | 299 | 41 | 10 | 10
